From ChEMBL document CHEMBL1212738, “Phenotypic and genotypic characterization of Enterobacteriaceae with decreased susceptibility to carbapenems: results from large hospital-based surveillance studies in China” (2010)
≈ marks a conversion by molar mass, not a printed value.

What was measured:
Klebsiella pneumoniae [1] = assay: Antimicrobial activity against carbapenem-resistant Klebsiella pneumoniae GZ84 deficient in SHV-11, aac(6')-Ib-cr, ompK35 by CLSI method; format: functional
Escherichia coli [2] = assay: Antimicrobial activity against carbapenem-resistant Escherichia coli HX74 deficient in TEM-1, CTX-M-14, CTX-M-3, aac(6')-Ibcr, ompC/F by CLSI method; format: functional
Citrobacter freundii [3] = assay: Antimicrobial activity against Citrobacter freundii SZ62 expressing IMP-4, TEM-1, CMY-2, qnrS1, aac(6')-Ib-cr by CLSI method; format: functional
Klebsiella aerogenes [4] = assay: Antimicrobial activity against carbapenem-resistant Enterobacter aerogenes PU41 deficient in CTX-M-14, DHA-1, qnrS1, ompC DEc, ompF by CLSI method; format: functional
Klebsiella aerogenes [5] = assay: Antimicrobial activity against Enterobacter aerogenes PU41T expressing CTX-M-14, DHA-1, qnrS1 by CLSI method; format: functional
Escherichia coli [6] = assay: Antimicrobial activity against Escherichia coli ZJ87T expressing KPC-2 by CLSI method; format: functional
Escherichia coli [7] = assay: Antimicrobial activity against Escherichia coli C600 by CLSI method; format: functional
Escherichia coli [8] = assay: Antimicrobial activity against carbapenem-resistant Escherichia coli PU96 deficient in TEM-1, CTX-M-14, CMY-2, ompC/F by CLSI method; format: functional
Citrobacter freundii [9] = assay: Antimicrobial activity against Citrobacter freundii SZ63 expressing IMP-4, qnrS1by CLSI method; format: functional
Citrobacter freundii [10] = assay: Antimicrobial activity against Citrobacter freundii SZ63T expressing IMP-4, qnrS1by CLSI method; format: functional
Klebsiella pneumoniae [11] = assay: Antimicrobial activity against carbapenem-resistant Klebsiella pneumoniae GZ66 deficient in SHV-11, DHA-1, ompK35/36 by CLSI method; format: functional
Klebsiella pneumoniae [12] = assay: Antimicrobial activity against carbapenem-resistant Klebsiella pneumoniae PU104 deficient in TEM-1, SHV-11, CTX-M-15, qnrS1, ompK35/36 by CLSI method; format: functional
Klebsiella pneumoniae [13] = assay: Antimicrobial activity against Klebsiella pneumoniae ZJ99 expressing KPC-2, CTX-M-3, qnrS1, ompK35 DE by CLSI method; format: functional
Klebsiella pneumoniae [14] = assay: Antimicrobial activity against carbapenem-resistant Klebsiella pneumoniae ZJ70 deficient in KPC-2, SHV-11, CTX-M-14, ompK35/36 by CLSI method; format: functional
Escherichia coli [15] = assay: Antimicrobial activity against carbapenem-resistant Escherichia coli PU43 deficient in TEM-1, CTX-M-14, aac(6')-Ib, ompC/F by CLSI method; format: functional
Klebsiella pneumoniae [16] = assay: Antimicrobial activity against Klebsiella pneumoniae ZJ99T expressing KPC-2, CTX-M-3, qnrS1 by CLSI method; format: functional
Klebsiella pneumoniae [17] = assay: Antimicrobial activity against Klebsiella pneumoniae CY1T expressing SHV-11, DHA-1 by CLSI method; format: functional
Klebsiella pneumoniae [18] = assay: Antimicrobial activity against Klebsiella pneumoniae ZJ71T expressing KPC-2 by CLSI method; format: functional
Enterobacter cloacae [19] = assay: Antimicrobial activity against carbapenem-resistant Enterobacter cloacae SZ92 deficient in IMP-4, TEM-1, CTX-M-14, DHA-1, qnrB10/B4-like, aac(6')-Ib, ompC by CLSI method; format: functional
Enterobacter cloacae [20] = assay: Antimicrobial activity against carbapenem-resistant Enterobacter cloacae GX24 deficient in TEM-1, DHA-1, aac(6')-Ib, ompC by CLSI method; format: functional
Klebsiella pneumoniae [21] = assay: Antimicrobial activity against carbapenem-resistant Klebsiella pneumoniae PU8 deficient in SHV-11, DHA-1, aac(6')-Ib-cr, ompK35/36 by CLSI method; format: functional
Klebsiella aerogenes [22] = assay: Antimicrobial activity against carbapenem-resistant Enterobacter aerogenes WH85 deficient in TEM-1, CTX-M-3, ompC/F by CLSI method; format: functional
Klebsiella pneumoniae [23] = assay: Antimicrobial activity against Klebsiella pneumoniae ZJ68T expressing CTX-M-15 by CLSI method; format: functional
Klebsiella pneumoniae [24] = assay: Antimicrobial activity against Klebsiella pneumoniae ZJ70T expressing KPC-2 by CLSI method; format: functional
Enterobacter cloacae [25] = assay: Antimicrobial activity against carbapenem-resistant Enterobacter cloacae NJ88 deficient in CTX-M-14, ompC/F by CLSI method; format: functional
Escherichia coli [26] = assay: Antimicrobial activity against Escherichia coli PU60T expressing CMY-2 by CLSI method; format: functional
Klebsiella pneumoniae [27] = assay: Antimicrobial activity against carbapenem-resistant Klebsiella pneumoniae FZ47 deficient in IMP-8, TEM-1, SHV-11, CTX-M-14, qnrB2, aac(6')-Ib, ompK35/36 by CLSI method; format: functional
Escherichia coli [28] = assay: Antimicrobial activity against Escherichia coli C600 transconjugant GZ66T expressing SHV-11, DHA-1 by CLSI method
Klebsiella pneumoniae [29] = assay: Antimicrobial activity against carbapenem-resistant Klebsiella pneumoniae CY1 deficient in SHV-11, DHA-1, ompK35/36 by CLSI method; format: functional
Klebsiella pneumoniae [30] = assay: Antimicrobial activity against Klebsiella pneumoniae WH76 expressing IMP-4, TEM-1, SHV-14, CTX-M-3, qnrS1 by CLSI method; format: functional
Klebsiella pneumoniae [31] = assay: Antimicrobial activity against carbapenem-resistant Klebsiella pneumoniae PU4 deficient in SHV-1, DHA-1, ompK35/36 by CLSI method; format: functional
Klebsiella pneumoniae [32] = assay: Antimicrobial activity against Klebsiella pneumoniae WH77 expressing IMP-4, TEM-1, SHV-14, CTX-M-3, qnrS1 by CLSI method; format: functional
Escherichia coli [33] = assay: Antimicrobial activity against Escherichia coli C600 transconjugant WH76T expressing IMP-4, TEM-1, CTX-M-3, qnrS1 by CLSI method
Klebsiella pneumoniae [34] = assay: Antimicrobial activity against carbapenem-resistant Klebsiella pneumoniae XJ81 deficient in TEM-1, SHV-12, DHA-1, aac(6')-Ib, ompK35/36 by CLSI method; format: functional
Klebsiella pneumoniae [35] = assay: Antimicrobial activity against carbapenem-resistant Klebsiella pneumoniae SX67 deficient in SHV-2, CTX-M-14, DHA-1, qnrB6/S1, aac(6')-Ib-cr, ompK35/36 by CLSI method; format: functional
Klebsiella pneumoniae [36] = assay: Antimicrobial activity against carbapenem-resistant Klebsiella pneumoniae FZ49 deficient in IMP-8, TEM-1, SHV-11, CTX-M-14, qnrB2, aac(6')-Ib, ompK35/36 by CLSI method; format: functional
Klebsiella pneumoniae [37] = assay: Antimicrobial activity against carbapenem-resistant Klebsiella pneumoniae SZ61 deficient in TEM-1, SHV-1a, CMY-2, ompK35/36 by CLSI method; format: functional
Klebsiella pneumoniae [38] = assay: Antimicrobial activity against carbapenem-resistant Klebsiella pneumoniae ZJ68 deficient in CTX-M-15, ompK35/36 by CLSI method
Klebsiella pneumoniae [39] = assay: Antimicrobial activity against carbapenem-resistant Klebsiella pneumoniae ZJ69 deficient in SHV-28, ompK35/36 by CLSI method; format: functional
Enterobacter cloacae [40] = assay: Antimicrobial activity against carbapenem-resistant Enterobacter cloacae WH103 deficient in IMP-4, TEM-1, CTX-M-3, qnrS1, ompC by CLSI method; format: functional
Klebsiella pneumoniae [41] = assay: Antimicrobial activity against Klebsiella pneumoniae GZ64 expressing IMP-4, ompK35/36 by CLSI method; format: functional

CC(C)(O/N=C(\C(=O)N[C@@H]1C(=O)N2C(C(=O)[O-])=C(C[n+]3ccccc3)CS[C@H]12)c1csc(N)n1)C(=O)O [CEFTAZIDIME]
MIC (Klebsiella pneumoniae [1]): 256 µg/mL (≈ 468 µM) | MIC (Escherichia coli [2]): 256 µg/mL (≈ 468 µM) | MIC (Citrobacter freundii [3]): > 256 µg/mL | MIC (Klebsiella aerogenes [4]): 64 µg/mL (≈ 117 µM) | MIC (Klebsiella aerogenes [5]): 64 µg/mL (≈ 117 µM) | MIC (Escherichia coli [6]): 32 µg/mL (≈ 58.5 µM) | MIC (Escherichia coli [7]): 0.5 µg/mL (≈ 0.915 µM) | MIC (Escherichia coli [8]): > 256 µg/mL | MIC (Citrobacter freundii [9]): > 256 µg/mL | MIC (Citrobacter freundii [10]): > 256 µg/mL | MIC (Klebsiella pneumoniae [11]): > 256 µg/mL | MIC (Klebsiella pneumoniae [12]): > 256 µg/mL | MIC (Klebsiella pneumoniae [13]): 64 µg/mL (≈ 117 µM) | MIC (Klebsiella pneumoniae [14]): 64 µg/mL (≈ 117 µM) | MIC (Escherichia coli [15]): 32 µg/mL (≈ 58.5 µM) | MIC (Klebsiella pneumoniae [16]): 128 µg/mL (≈ 234 µM) | MIC (Klebsiella pneumoniae [17]): 64 µg/mL (≈ 117 µM) | MIC (Klebsiella pneumoniae [18]): 32 µg/mL (≈ 58.5 µM) | MIC (Enterobacter cloacae [19]): > 256 µg/mL | MIC (Enterobacter cloacae [20]): > 256 µg/mL | MIC (Klebsiella pneumoniae [21]): 256 µg/mL (≈ 468 µM) | MIC (Klebsiella aerogenes [22]): 32 µg/mL (≈ 58.5 µM) | MIC (Klebsiella pneumoniae [23]): 256 µg/mL (≈ 468 µM) | MIC (Klebsiella pneumoniae [24]): 32 µg/mL (≈ 58.5 µM) | MIC (Enterobacter cloacae [25]): > 256 µg/mL | MIC (Escherichia coli [26]): 64 µg/mL (≈ 117 µM) | MIC (Klebsiella pneumoniae [27]): > 256 µg/mL | MIC (Escherichia coli [28]): 128 µg/mL (≈ 234 µM) | MIC (Klebsiella pneumoniae [29]): 256 µg/mL (≈ 468 µM) | MIC (Klebsiella pneumoniae [30]): 256 µg/mL (≈ 468 µM) | MIC (Klebsiella pneumoniae [31]): 64 µg/mL (≈ 117 µM) | MIC (Klebsiella pneumoniae [32]): 256 µg/mL (≈ 468 µM) | MIC (Escherichia coli [33]): > 256 µg/mL | MIC (Klebsiella pneumoniae [34]): > 256 µg/mL | MIC (Klebsiella pneumoniae [35]): > 256 µg/mL | MIC (Klebsiella pneumoniae [36]): > 256 µg/mL | MIC (Klebsiella pneumoniae [37]): 256 µg/mL (≈ 468 µM) | MIC (Klebsiella pneumoniae [38]): 256 µg/mL (≈ 468 µM) | MIC (Klebsiella pneumoniae [39]): 128 µg/mL (≈ 234 µM) | MIC (Enterobacter cloacae [40]): > 256 µg/mL | MIC (Klebsiella pneumoniae [41]): > 256 µg/mL

CN(C)c1cc(NC(=O)CNC(C)(C)C)c(O)c2c1C[C@H]1C[C@H]3[C@H](N(C)C)C(O)=C(C(N)=O)C(=O)[C@@]3(O)C(O)=C1C2=O [TIGECYCLINE]
MIC (Klebsiella pneumoniae [1]): 0.5 µg/mL (≈ 0.854 µM) | MIC (Escherichia coli [2]): 0.064 µg/mL (≈ 0.109 µM) | MIC (Citrobacter freundii [3]): 1 µg/mL (≈ 1.71 µM) | MIC (Klebsiella aerogenes [4]): 1 µg/mL (≈ 1.71 µM) | MIC (Klebsiella aerogenes [5]): 0.064 µg/mL (≈ 0.109 µM) | MIC (Escherichia coli [6]): 0.25 µg/mL (≈ 0.427 µM) | MIC (Escherichia coli [7]): 0.06 µg/mL (≈ 0.102 µM) | MIC (Escherichia coli [8]): 1 µg/mL (≈ 1.71 µM) | MIC (Citrobacter freundii [9]): 1 µg/mL (≈ 1.71 µM) | MIC (Citrobacter freundii [10]): 0.13 µg/mL (≈ 0.222 µM) | MIC (Klebsiella pneumoniae [11]): 0.5 µg/mL (≈ 0.854 µM) | MIC (Klebsiella pneumoniae [12]): 0.5 µg/mL (≈ 0.854 µM) | MIC (Klebsiella pneumoniae [13]): 1 µg/mL (≈ 1.71 µM) | MIC (Klebsiella pneumoniae [14]): 0.25 µg/mL (≈ 0.427 µM) | MIC (Escherichia coli [15]): 0.25 µg/mL (≈ 0.427 µM) | MIC (Klebsiella pneumoniae [16]): 0.25 µg/mL (≈ 0.427 µM) | MIC (Klebsiella pneumoniae [17]): 1 µg/mL (≈ 1.71 µM) | MIC (Klebsiella pneumoniae [18]): 0.13 µg/mL (≈ 0.222 µM) | MIC (Enterobacter cloacae [19]): 1 µg/mL (≈ 1.71 µM) | MIC (Enterobacter cloacae [20]): 1 µg/mL (≈ 1.71 µM) | MIC (Klebsiella pneumoniae [21]): 1 µg/mL (≈ 1.71 µM) | MIC (Klebsiella aerogenes [22]): 0.064 µg/mL (≈ 0.109 µM) | MIC (Klebsiella pneumoniae [23]): 0.064 µg/mL (≈ 0.109 µM) | MIC (Klebsiella pneumoniae [24]): 0.13 µg/mL (≈ 0.222 µM) | MIC (Enterobacter cloacae [25]): 0.5 µg/mL (≈ 0.854 µM) | MIC (Escherichia coli [26]): 0.125 µg/mL (≈ 0.213 µM) | MIC (Klebsiella pneumoniae [27]): 1 µg/mL (≈ 1.71 µM) | MIC (Escherichia coli [28]): 0.125 µg/mL (≈ 0.213 µM) | MIC (Klebsiella pneumoniae [29]): 16 µg/mL (≈ 27.3 µM) | MIC (Klebsiella pneumoniae [30]): 0.5 µg/mL (≈ 0.854 µM) | MIC (Klebsiella pneumoniae [31]): 4 µg/mL (≈ 6.83 µM) | MIC (Klebsiella pneumoniae [32]): 0.5 µg/mL (≈ 0.854 µM) | MIC (Escherichia coli [33]): 0.06 µg/mL (≈ 0.102 µM) | MIC (Klebsiella pneumoniae [34]): 0.5 µg/mL (≈ 0.854 µM) | MIC (Klebsiella pneumoniae [35]): 0.5 µg/mL (≈ 0.854 µM) | MIC (Klebsiella pneumoniae [36]): 0.5 µg/mL (≈ 0.854 µM) | MIC (Klebsiella pneumoniae [37]): 4 µg/mL (≈ 6.83 µM) | MIC (Klebsiella pneumoniae [38]): 0.125 µg/mL (≈ 0.213 µM) | MIC (Klebsiella pneumoniae [39]): 0.5 µg/mL (≈ 0.854 µM) | MIC (Enterobacter cloacae [40]): 1 µg/mL (≈ 1.71 µM) | MIC (Klebsiella pneumoniae [41]): 0.5 µg/mL (≈ 0.854 µM)
